Measured values published in PMC3063124 (The Journal of neuroscience : the official journal of the …, 2011).

Target: GluN1/GluN2D (Rattus norvegicus, UniProt Q62645)
Assay type: cell-based
Conditions: absence of QNZ46; continuous presence of glycine

Sequence of GluN1/GluN2D (Q62645 28-1323, other chains not shown): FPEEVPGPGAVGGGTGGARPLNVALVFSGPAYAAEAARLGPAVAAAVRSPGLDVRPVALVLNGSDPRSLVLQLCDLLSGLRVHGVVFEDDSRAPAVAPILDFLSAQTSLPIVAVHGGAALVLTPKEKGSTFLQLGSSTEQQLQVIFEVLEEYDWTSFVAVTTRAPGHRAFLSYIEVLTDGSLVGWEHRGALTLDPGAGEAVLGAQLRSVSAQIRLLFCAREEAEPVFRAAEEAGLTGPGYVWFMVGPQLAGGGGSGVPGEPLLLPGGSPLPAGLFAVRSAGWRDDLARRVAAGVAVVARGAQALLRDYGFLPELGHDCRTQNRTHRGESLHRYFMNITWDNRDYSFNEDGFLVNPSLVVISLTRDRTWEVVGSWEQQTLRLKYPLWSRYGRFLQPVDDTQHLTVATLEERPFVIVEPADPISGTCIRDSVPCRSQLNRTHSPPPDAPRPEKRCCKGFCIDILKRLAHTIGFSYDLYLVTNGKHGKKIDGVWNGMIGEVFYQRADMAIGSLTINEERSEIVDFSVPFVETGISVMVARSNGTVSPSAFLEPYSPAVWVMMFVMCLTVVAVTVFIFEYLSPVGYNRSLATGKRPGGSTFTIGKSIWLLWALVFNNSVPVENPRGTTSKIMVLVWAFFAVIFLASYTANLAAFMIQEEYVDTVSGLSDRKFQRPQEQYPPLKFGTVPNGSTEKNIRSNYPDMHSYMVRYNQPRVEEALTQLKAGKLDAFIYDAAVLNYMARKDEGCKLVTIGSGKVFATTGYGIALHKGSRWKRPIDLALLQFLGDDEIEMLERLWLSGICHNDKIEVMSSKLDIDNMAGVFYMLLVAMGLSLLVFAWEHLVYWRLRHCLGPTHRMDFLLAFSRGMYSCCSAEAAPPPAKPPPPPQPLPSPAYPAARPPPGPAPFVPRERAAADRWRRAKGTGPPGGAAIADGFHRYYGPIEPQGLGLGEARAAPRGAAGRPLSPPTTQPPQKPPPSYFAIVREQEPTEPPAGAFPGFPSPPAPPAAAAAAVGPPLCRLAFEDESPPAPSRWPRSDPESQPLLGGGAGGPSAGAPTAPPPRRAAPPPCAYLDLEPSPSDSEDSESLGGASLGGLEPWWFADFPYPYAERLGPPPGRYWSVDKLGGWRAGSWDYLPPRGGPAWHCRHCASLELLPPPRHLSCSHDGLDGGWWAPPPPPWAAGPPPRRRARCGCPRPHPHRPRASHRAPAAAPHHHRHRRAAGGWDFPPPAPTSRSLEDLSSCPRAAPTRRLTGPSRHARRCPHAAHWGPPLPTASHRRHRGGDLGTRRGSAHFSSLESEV

## CN[C@H](CC(=O)O)C(=O)O [NMDA, N-methyl-D-aspartate, reference compound]
  time constant for agonist deactivation (τweighted): 92 ms
